Measured values taken from ChEMBL document CHEMBL5113453, “Design, synthesis, and biological evaluation of a new series of pyrazole derivatives: Discovery of potent and selective JNK3 kinase inhibitors” (Bioorg Med Chem, 2022).

Key:
CCRF-CEM = assay: Antiproliferative activity against human CCRF-CEM cells measured after 48 hrs by SRB assay; assay type: functional, cell-based
HL-60(TB) = assay: Antiproliferative activity against human HL-60(TB) cells measured after 48 hrs by SRB assay; assay type: functional, cell-based
MOLT-4 = assay: Antiproliferative activity against human MOLT-4 cells measured after 48 hrs by SRB assay; assay type: functional, cell-based
RPMI-8226 = assay: Antiproliferative activity against human RPMI-8226 cells measured after 48 hrs by SRB assay; assay type: functional, cell-based
SR = assay: Antiproliferative activity against human SR cells measured after 48 hrs by SRB assay; assay type: functional, cell-based
A549 = assay: Antiproliferative activity against human A549 cells measured after 48 hrs by SRB assay; assay type: functional, cell-based
NCI-H23 = assay: Antiproliferative activity against human NCI-H23 cells measured after 48 hrs by SRB assay; assay type: functional, cell-based
NCI-H522 = assay: Antiproliferative activity against human NCI-H522 cells measured after 48 hrs by SRB assay; assay type: functional, cell-based
COLO 205 = assay: Antiproliferative activity against human COLO 205 cells measured after 48 hrs by SRB assay; assay type: functional, cell-based
HCC 2998 = assay: Antiproliferative activity against human HCC 2998 cells measured after 48 hrs by SRB assay; assay type: functional, cell-based
HCT-116 = assay: Antiproliferative activity against human HCT-116 cells measured after 48 hrs by SRB assay; assay type: functional, cell-based
HCT-15 = assay: Antiproliferative activity against human HCT-15 cells measured after 48 hrs by SRB assay; assay type: functional, cell-based
HT-29 = assay: Antiproliferative activity against human HT-29 cells measured after 48 hrs by SRB assay; assay type: functional, cell-based
SW-620 = assay: Antiproliferative activity against human SW-620 cells measured after 48 hrs by SRB assay; assay type: functional, cell-based
SNB-19 = assay: Antiproliferative activity against human SNB-19 cells measured after 48 hrs by SRB assay; assay type: functional, cell-based
Malme-3M = assay: Antiproliferative activity against human Malme-3M cells measured after 48 hrs by SRB assay; assay type: functional, cell-based
M14 = assay: Antiproliferative activity against human M14 cells measured after 48 hrs by SRB assay; assay type: functional, cell-based
MDA-MB-435 = assay: Antiproliferative activity against human MDA-MB-435 cells measured after 48 hrs by SRB assay; assay type: functional, cell-based
SK-MEL-2 = assay: Antiproliferative activity against human SK-MEL-2 cells measured after 48 hrs by SRB assay; assay type: functional, cell-based
SK-MEL-5 = assay: Antiproliferative activity against human SK-MEL-5 cells measured after 48 hrs by SRB assay; assay type: functional, cell-based
OVCAR-3 = assay: Antiproliferative activity against human OVCAR-3 cells measured after 48 hrs by SRB assay; assay type: functional, cell-based
OVCAR-4 = assay: Antiproliferative activity against human OVCAR-4 cells measured after 48 hrs by SRB assay; assay type: functional, cell-based
OVCAR-5 = assay: Antiproliferative activity against human OVCAR-5 cells measured after 48 hrs by SRB assay; assay type: functional, cell-based
OVCAR-8 = assay: Antiproliferative activity against human OVCAR-8 cells measured after 48 hrs by SRB assay; assay type: functional, cell-based
SK-OV-3 = assay: Antiproliferative activity against human SK-OV-3 cells measured after 48 hrs by SRB assay; assay type: functional, cell-based
ACHN = assay: Antiproliferative activity against human ACHN cells measured after 48 hrs by SRB assay; assay type: functional, cell-based
CAKI-1 = assay: Antiproliferative activity against human CAKI-1 cells measured after 48 hrs by SRB assay; assay type: functional, cell-based
RXF 393 = assay: Antiproliferative activity against human RXF 393 cells measured after 48 hrs by SRB assay; assay type: functional, cell-based
SN12C = assay: Antiproliferative activity against human SN12C cells measured after 48 hrs by SRB assay; assay type: functional, cell-based
TK-10 = assay: Antiproliferative activity against human TK-10 cells measured after 48 hrs by SRB assay; assay type: functional, cell-based
UO-31 = assay: Antiproliferative activity against human UO-31 cells measured after 48 hrs by SRB assay; assay type: functional, cell-based
PC-3 = assay: Antiproliferative activity against human PC-3 cells measured after 48 hrs by SRB assay; assay type: functional, cell-based
DU-145 = assay: Antiproliferative activity against human DU-145 cells measured after 48 hrs by SRB assay; assay type: functional, cell-based
MCF7 = assay: Antiproliferative activity against human MCF7 cells measured after 48 hrs by SRB assay; assay type: functional, cell-based
MDA-MB-231 = assay: Antiproliferative activity against human MDA-MB-231 cells measured after 48 hrs by SRB assay; assay type: functional, cell-based
Hs-578T = assay: Antiproliferative activity against human Hs-578T cells measured after 48 hrs by SRB assay; assay type: functional, cell-based
MDA-MB-468 = assay: Antiproliferative activity against human MDA-MB-468 cells measured after 48 hrs by SRB assay; assay type: functional, cell-based
WI-38 = assay: Antiproliferative activity against human WI-38 cells measured by MTT assay; assay type: functional, cell-based
[1] = molecular target: Mitogen-activated protein kinase 10 (Homo sapiens, UniProt P53779); assay: Inhibition of JNK3 (unknown origin)
Chain of Mitogen-activated protein kinase 10 (P53779 whole entry): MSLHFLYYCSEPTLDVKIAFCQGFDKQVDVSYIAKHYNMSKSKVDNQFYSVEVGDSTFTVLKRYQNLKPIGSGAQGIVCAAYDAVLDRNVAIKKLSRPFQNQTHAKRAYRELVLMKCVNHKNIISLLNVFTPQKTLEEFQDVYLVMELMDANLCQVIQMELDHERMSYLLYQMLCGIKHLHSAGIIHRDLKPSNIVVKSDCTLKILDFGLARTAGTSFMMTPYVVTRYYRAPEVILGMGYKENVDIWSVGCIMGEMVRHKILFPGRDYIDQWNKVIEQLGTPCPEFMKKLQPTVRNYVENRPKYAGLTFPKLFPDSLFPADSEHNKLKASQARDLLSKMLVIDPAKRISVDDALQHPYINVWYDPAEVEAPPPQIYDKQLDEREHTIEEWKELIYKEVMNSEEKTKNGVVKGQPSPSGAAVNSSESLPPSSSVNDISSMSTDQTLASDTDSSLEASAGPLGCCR

Structure (SMILES): O=C(NCCCNc1cc(-c2cn(-c3ccccc3)nc2-c2cccc(O)c2)ccn1)Nc1cccc(C(F)(F)F)c1
- IC50 (CCRF-CEM; 48 h): 1.71 µM
- TGI (CCRF-CEM; time 48 hrs): > 33.3 µM
- IC50 (HL-60(TB); HL-60, 48 h): 3.42 µM
- TGI (HL-60(TB); HL-60, time 48 hrs): 14.5 µM
- IC50 (MOLT-4; MOLT-4, 48 h): 1.67 µM
- TGI (MOLT-4; MOLT-4, time 48 hrs): 15 µM
- IC50 (RPMI-8226; RPMI-8226, 48 h): 0.73 µM
- TGI (RPMI-8226; RPMI-8226, time 48 hrs): 6.12 µM
- IC50 (SR; 48 h): 1.65 µM
- TGI (SR; time 48 hrs): 12.8 µM
- IC50 (A549; A549, 48 h): 3.35 µM
- TGI (A549; A549, time 48 hrs): 11.2 µM
- IC50 (NCI-H23; NCI-H23, 48 h): 4.34 µM
- TGI (NCI-H23; NCI-H23, time 48 hrs): 9.34 µM
- IC50 (NCI-H522; NCI-H522, 48 h): 5.12 µM
- TGI (NCI-H522; NCI-H522, time 48 hrs): 11 µM
- IC50 (COLO 205; COLO 205, 48 h): 2.97 µM
- TGI (COLO 205; COLO 205, time 48 hrs): 8.72 µM
- IC50 (HCC 2998; HCC 2998, 48 h): 1.26 µM
- TGI (HCC 2998; HCC 2998, time 48 hrs): 4.34 µM
- IC50 (HCT-116; HCT-116, 48 h): 1.97 µM
- TGI (HCT-116; HCT-116, time 48 hrs): 6.33 µM
- IC50 (HCT-15; HCT-15, 48 h): 1.06 µM
- TGI (HCT-15; HCT-15, time 48 hrs): 4.32 µM
- IC50 (HT-29; HT-29, 48 h): 1.51 µM
- TGI (HT-29; HT-29, time 48 hrs): 6.19 µM
- IC50 (SW-620; SW-620, 48 h): 3.85 µM
- TGI (SW-620; SW-620, time 48 hrs): 8.31 µM
- IC50 (SNB-19; SNB-19, 48 h): 3.99 µM
- TGI (SNB-19; SNB-19, time 48 hrs): 8.97 µM
- IC50 (Malme-3M; 48 h): 1.54 µM
- TGI (Malme-3M; time 48 hrs): 6.08 µM
- IC50 (M14; M14, 48 h): 2.18 µM
- TGI (M14; M14, time 48 hrs): 6.98 µM
- IC50 (MDA-MB-435; MDA-MB-435, 48 h): 3.41 µM
- TGI (MDA-MB-435; MDA-MB-435, time 48 hrs): 7.57 µM
- IC50 (SK-MEL-2; SK-MEL-2, 48 h): 5.29 µM
- TGI (SK-MEL-2; SK-MEL-2, time 48 hrs): 11.7 µM
- IC50 (SK-MEL-5; SK-MEL-5, 48 h): 3.25 µM
- TGI (SK-MEL-5; SK-MEL-5, time 48 hrs): 7.17 µM
- IC50 (OVCAR-3; OVCAR-3, 48 h): 1.87 µM
- TGI (OVCAR-3; OVCAR-3, time 48 hrs): 9.35 µM
- IC50 (OVCAR-4; OVCAR-4, 48 h): 2.13 µM
- TGI (OVCAR-4; OVCAR-4, time 48 hrs): 7.75 µM
- IC50 (OVCAR-5; OVCAR-5, 48 h): 3.96 µM
- TGI (OVCAR-5; OVCAR-5, time 48 hrs): 9.71 µM
- IC50 (OVCAR-8; OVCAR-8, 48 h): 3.88 µM
- TGI (OVCAR-8; OVCAR-8, time 48 hrs): 10 µM
- IC50 (SK-OV-3; SK-OV-3, 48 h): 4.49 µM
- TGI (SK-OV-3; SK-OV-3, time 48 hrs): 10.1 µM
- IC50 (ACHN; 48 h): 5.24 µM
- TGI (ACHN; time 48 hrs): 15.5 µM
- IC50 (CAKI-1; CAKI-1, 48 h): 1.9 µM
- TGI (CAKI-1; CAKI-1, time 48 hrs): 12.3 µM
- IC50 (RXF 393; RXF 393, 48 h): 1.08 µM
- TGI (RXF 393; RXF 393, time 48 hrs): 4.96 µM
- IC50 (SN12C; 48 h): 3.65 µM
- TGI (SN12C; time 48 hrs): 7.91 µM
- IC50 (TK-10; TK-10, 48 h): 5.75 µM
- TGI (TK-10; TK-10, time 48 hrs): 13.2 µM
- IC50 (UO-31; UO-31, 48 h): 2.1 µM
- TGI (UO-31; UO-31, time 48 hrs): 10.8 µM
- IC50 (PC-3; PC-3, 48 h): 1.79 µM
- TGI (PC-3; PC-3, time 48 hrs): 11.2 µM
- IC50 (DU-145; DU-145, 48 h): 4.8 µM
- TGI (DU-145; DU-145, time 48 hrs): 11.9 µM
- IC50 (MCF7; MCF7, 48 h): 2.73 µM
- TGI (MCF7; MCF7, time 48 hrs): 9.39 µM
- IC50 (MDA-MB-231; MDA-MB-231, 48 h): 2.85 µM
- TGI (MDA-MB-231; MDA-MB-231, time 48 hrs): 7.76 µM
- IC50 (Hs-578T; 48 h): 1.34 µM
- TGI (Hs-578T; time 48 hrs): 7.74 µM
- IC50 (MDA-MB-468; MDA-MB-468, 48 h): 1.61 µM
- TGI (MDA-MB-468; MDA-MB-468, time 48 hrs): 6.16 µM
- IC50 (WI-38): 13.6 µM
- IC50 [1]: 0.474 µM
